{"source": "paper PMC10743883", "about": "“Identification and Functional Analysis of an Epsilon Class Glutathione S-Transferase Gene Associated with α-Pinene Adaptation in Monochamus alternatus” (International Journal of Molecular Sciences, 2023)", "tested_on": "MaGSTe3", "test": "GSH conjugation, absorbance at […] nm, Michaelis-Menten fit", "format": "biochemical, Monochamus alternatus", "details": "co-substrate GSH (concentration not given); 100 mM PBS; CDNB varied, printed range 0–400 mM"}
{"smiles": "O=[N+]([O-])c1ccc(Cl)c([N+](=O)[O-])c1", "note": "[1-chloro-2,4-dinitrobenzene]", "values": [{"measurement": "Km", "result": "1240 ± 210", "unit": "µM"}]}
